System: 598228-144-R-J1-PDC complex spheroid viability
Assay: Anticancer human tumor 598228-144-R-J1-PDC patient-derived serous endometrial adenocarcinoma cell line growth inhibition [GQUAD]
Details: for IC50: curve of first compound; for viability, T/C: stronger effect = lower value; active means viability on the fitted dose curve at most 10% of control; inactive means the rest
From the text: DNA G-quadruplex Stabilizer Agents in Combinations in Complex Spheroids
A high-throughput screen of multi-cell type tumor spheroids was designed to identify active combinations of DNA G-quadruplex stabilizer agents and targeted small molecules. Complex spheroids include a stromal component modeled by human endothelial cells (HUVEC) and fibroblasts modeled by human mesenchymal stem cells (MSCs). The concentration ranges selected for each drug and investigational agent were based upon clinically achievable concentrations if the clinical Cmax of the agent was known.
Compounds. The drugs and investigational agents: pidnarulex (CX-5461; NSC782164), APTO-253 (NSC789042), BRACO-19 (NSC847499), peposertib (NSC802822), ceralasertib (NSC780249), elimusertib (NSC800525), camonsertib (NSC841442), AZD-1390 (NSC803789), olaparib (NSC753686), talazoparib (NSC767125), ART-558 (NSC835418), sotorasib (NSC818433), MRTX-1133 (NSC836407), SN-38 (NSC673596), topotecan (NSC609699), etoposide (NSC141540), doxorubicin (NSC123127), gemcitabine (NSC613327), 5-fluorouracil (NSC19893), paclitaxel (NSC125973), vemurafenib (NSC761431), panobinostat (NSC761190), R-306465 (JNJ-16241199; NSC773264), adavosertib (NSC754352), TP-3654 (NSC805149), carboplatin (NSC241240), KSQ-4279 (NSC840948), and staurosporine (NSC755774) were obtained from the National Cancer Institute (NCI) Developmental Therapeutics Program Chemical Repository (34). The FDA-approved anticancer drug set is available from the NCI Developmental Therapeutics Program. […] The stock solutions were prepared in dimethyl sulfoxide (DMSO, Sigma-Aldrich, St. Louis, MO, cat. D2650) at 800-fold the tested concentration and stored at -70 degrees C prior to their use. All drugs and investigational agents were tested over a range starting from a high concentration at or near the clinical Cmax and decreasing in half-log increments. If the clinical Cmax for an agent had not been determined, the highest concentration tested was 10 microM.
2.3 Cell Culture. All cells were maintained in an incubator at 37 degrees C and 5% CO2 with 95% humidity. The PDC lines were cultured according to standard operating procedures established by the NCI PDMR. All PDCs were thawed and cultured in Matrigel-coated flasks prepared with a working solution of 1X Ham's F-12 nutrient mix, without supplementation (Invitrogen, cat. 11765054), 100 U/mL penicillin-streptomycin (Invitrogen, cat. 15140122), and 2.5% Matrigel (Corning Inc., cat. 354248) for the first three passages. The 857933-349-R-J2-PDC line was cultured in 6C/Colon 1B media, which includes advanced DMEM/F-12 (Thermo Fisher Scientific, cat. 12634028), 10 mM HEPES (Thermo Fisher Scientific, cat. 15630080), 1X GlutaMAX supplement (Thermo Fisher Scientific, cat. 35050061), 0.1 mg/mL primocin (InvivoGen, cat. ant-pm-2), 10% defined fetal bovine serum, heat inactivated (HyClone Laboratories Inc., cat. SH30070.03HI), 50% L-WRN conditioned media (ATCC, cat. CRL-3276), 1.25 mM N-Acetyl-L-cysteine (Sigma-Aldrich, cat. A9165), 10 mM nicotinamide (Sigma-Aldrich, cat. N0636), 1X B-27 supplement (Thermo Fisher Scientific, cat. 17504044), 1X N-2 supplement (Thermo Fisher Scientific, cat. 17502048), 10 microM Y-27632 dihydrochloride (Tocris Bioscience, cat. 1254), and 50 ng/mL human EGF recombinant protein (Thermo Fisher Scientific, cat. PHG0311). The 485176-168-R4-J1-PDC line was cultured in Panc media, which includes all 6C/Colon 1B media components plus 100 ng/mL human FGF-10 (Thermo Fisher Scientific, cat. 100-26), 500 nM SB-431542 (Selleckchem, cat. S1067), and gastrin (Tocris, cat. 3006).
[…]

[1] = second compound 0.0316 µM, first compound 0.0316 µM
[2] = second compound 0.0316 µM, first compound 0.1 µM
[3] = second compound 0.0316 µM, first compound 0.316 µM
[4] = second compound 0.0316 µM, first compound 1 µM
[5] = second compound 0.0316 µM, first compound 3.16 µM
[6] = second compound 0.0316 µM, first compound 10 µM
[7] = second compound 0.1 µM, first compound 0.0316 µM
[8] = second compound 0.1 µM, first compound 0.1 µM
[9] = second compound 0.1 µM, first compound 0.316 µM
[10] = second compound 0.1 µM, first compound 1 µM
[11] = second compound 0.1 µM, first compound 3.16 µM
[12] = second compound 0.1 µM, first compound 10 µM
[13] = second compound 0.316 µM, first compound 0.0316 µM
[14] = second compound 0.316 µM, first compound 0.1 µM
[15] = second compound 0.316 µM, first compound 0.316 µM
[16] = second compound 0.316 µM, first compound 1 µM
[17] = second compound 0.316 µM, first compound 3.16 µM
[18] = second compound 0.316 µM, first compound 10 µM
[19] = second compound 1 µM, first compound 0.0316 µM
[20] = second compound 1 µM, first compound 0.1 µM
[21] = second compound 1 µM, first compound 0.316 µM
[22] = second compound 1 µM, first compound 1 µM
[23] = second compound 1 µM, first compound 3.16 µM
[24] = second compound 1 µM, first compound 10 µM
[25] = second compound 3.16 µM, first compound 0.0316 µM
[26] = second compound 3.16 µM, first compound 0.1 µM
[27] = second compound 3.16 µM, first compound 0.316 µM
[28] = second compound 3.16 µM, first compound 1 µM
[29] = second compound 3.16 µM, first compound 3.16 µM
[30] = second compound 3.16 µM, first compound 10 µM
[31] = second compound 10 µM, first compound 0.0316 µM
[32] = second compound 10 µM, first compound 0.1 µM
[33] = second compound 10 µM, first compound 0.316 µM
[34] = second compound 10 µM, first compound 1 µM
[35] = second compound 10 µM, first compound 3.16 µM
[36] = second compound 10 µM, first compound 10 µM
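Further: spheroids exposed to the agents for one week before reading.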
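Wherever viability, T/C is given: percent of vehicle DMSO control viability so 100% = untreated growth.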

CC(C)(O)C1CCC(Nc2ccc3ncc(-c4cccc(C(F)(F)F)c4)n3n2)CC1 (centres undefined) + Cc1cnc(CNC(=O)c2c(=O)c3ccc(N4CCCN(C)CC4)nc3n3c2sc2ccccc23)cn1
887 nM: IC50 (second compound 0.1 µM)
active: viability, T/C [29] 0.22% | viability, T/C [30] 0.19% | viability, T/C [34] 0.33% | viability, T/C [35] 0.26% | viability, T/C [36] 5.96%
398 nM: IC50 (second compound 3.16 µM)
< 31.6 nM: IC50 (second compound 10 µM)
1390 nM: IC50 (second compound 0.0316 µM)
inactive: viability, T/C [1] 76.5% | viability, T/C [2] 93.7% | viability, T/C [3] 73.2% | viability, T/C [4] 62.9% | viability, T/C [5] 16.7% | viability, T/C [6] 17.8% | viability, T/C [7] 73.7% | viability, T/C [8] 69.2% | viability, T/C [9] 70.2% | viability, T/C [10] 46.4% | viability, T/C [11] 22.9% | viability, T/C [12] 10.9% | viability, T/C [13] 77% | viability, T/C [14] 53.6% | viability, T/C [15] 74.7% | viability, T/C [16] 56.1% | viability, T/C [17] 17.7% | viability, T/C [18] 17.6% | viability, T/C [19] 64.2% | viability, T/C [20] 45.9% | viability, T/C [21] 58.2% | viability, T/C [22] 65.8% | viability, T/C [23] 13.6% | viability, T/C [24] 18.3% | viability, T/C [25] 51.2% | viability, T/C [26] 56.8% | viability, T/C [27] 55.2% | viability, T/C [28] 32.6% | viability, T/C [31] 25.4% | viability, T/C [32] 0.49% | viability, T/C [33] 33%
1200 nM: IC50 (second compound 0.316 µM)
1260 nM: IC50 (second compound 1 µM)

COc1ncnc(C2CC2)c1-c1ncc2cnn(Cc3ccc(-c4nc(C(F)(F)F)cn4C(C)C)cc3)c2n1 + CN(C)c1ccc(Nc2c3ccc(NC(=O)CCN4CCCC4)cc3nc3cc(NC(=O)CCN4CCCC4)ccc23)cc1
inactive: viability, T/C [1] 91.3% | viability, T/C [2] 111% | viability, T/C [3] 95.9% | viability, T/C [4] 92.2% | viability, T/C [5] 111% | viability, T/C [6] 89.9% | viability, T/C [7] 105% | viability, T/C [8] 97.9% | viability, T/C [9] 101% | viability, T/C [10] 85.5% | viability, T/C [11] 102% | viability, T/C [12] 110% | viability, T/C [13] 112% | viability, T/C [14] 115% | viability, T/C [15] 99% | viability, T/C [16] 88.7% | viability, T/C [17] 120% | viability, T/C [18] 110% | viability, T/C [19] 112% | viability, T/C [20] 90.6% | viability, T/C [21] 102% | viability, T/C [22] 75.1% | viability, T/C [23] 95.2% | viability, T/C [24] 90.5% | viability, T/C [25] 89.8% | viability, T/C [26] 108% | viability, T/C [27] 94.3% | viability, T/C [28] 105% | viability, T/C [29] 90.9% | viability, T/C [30] 91.5% | viability, T/C [31] 84% | viability, T/C [32] 67.8% | viability, T/C [33] 72.2% | viability, T/C [34] 77.1% | viability, T/C [35] 71.1% | viability, T/C [36] 51.5%
> 10000 nM: IC50 (second compound 0.0316 µM) | IC50 (second compound 0.1 µM) | IC50 (second compound 0.316 µM) | IC50 (second compound 1 µM) | IC50 (second compound 3.16 µM) | IC50 (second compound 10 µM)
